Reference: ChEMBL document CHEMBL5120916, “Structure-Activity Relationships and Antileukemia Effects of the Tricyclic Benzoic Acid FTO Inhibitors” (J Med Chem, 2022)
Values belong to the compound of their own block, whether it stands above or below them. Active and inactive are the calls of the source. The calls are words filed in the database; no cut-off is given here.

Key:
[1] = system: NB-4; test: Antiproliferative activity against human NB-4 cells assessed as reduction in cell viability at 10 uM administered as single dose measured after 48 hrs by CCK-8 assay; format: functional, cell-based
[2] = system: MONO-MAC-6; test: Antiproliferative activity against human MONO-MAC-6 cells assessed as reduction in cell viability at 10 uM administered as single dose measured after 48 hrs by CCK-8 assay; format: functional, cell-based
[3] = molecular target: T1, Alpha-ketoglutarate-dependent dioxygenase FTO (Homo sapiens, UniProt Q9C0B1); test: Inhibition of N-terminal His-tagged human FTO expressed in Escherichia coli BL21(DE3) by PAGE based assay
Target sequence in this assay (Q9C0B1 whole entry): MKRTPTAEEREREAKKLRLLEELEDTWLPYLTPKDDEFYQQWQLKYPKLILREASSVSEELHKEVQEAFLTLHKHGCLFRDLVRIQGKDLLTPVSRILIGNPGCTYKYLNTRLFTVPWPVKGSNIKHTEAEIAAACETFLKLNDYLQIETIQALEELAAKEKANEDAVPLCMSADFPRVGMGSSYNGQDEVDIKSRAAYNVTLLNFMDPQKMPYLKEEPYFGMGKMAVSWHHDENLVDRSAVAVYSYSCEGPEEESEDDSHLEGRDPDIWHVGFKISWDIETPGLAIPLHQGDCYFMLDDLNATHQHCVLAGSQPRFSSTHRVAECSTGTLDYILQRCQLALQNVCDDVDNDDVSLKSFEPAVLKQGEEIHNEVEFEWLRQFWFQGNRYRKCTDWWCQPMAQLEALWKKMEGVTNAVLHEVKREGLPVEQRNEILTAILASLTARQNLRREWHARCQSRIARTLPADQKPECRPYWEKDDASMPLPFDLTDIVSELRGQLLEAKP

[4] = molecular target: T1, Alpha-ketoglutarate-dependent dioxygenase FTO
Target sequence in this assay (Q9C0B1 whole entry, looked up): as the sequence (Q9C0B1 whole entry) above
Description: Binding affinity to N-terminal His-tagged human FTO expressed in Escherichia coli BL21(DE3) assessed as change in melting temperature at 1:20 protein to compound ratio by fluorescence based thermal shift assay

[5] = molecular target: T1, Alpha-ketoglutarate-dependent dioxygenase FTO; remark: listed apart in the source
Target sequence in this assay (Q9C0B1 whole entry, looked up): as the sequence (Q9C0B1 whole entry) above
Description: Binding affinity to N-terminal His-tagged human FTO expressed in Escherichia coli BL21(DE3) assessed as change in melting temperature at 1:5 protein to compound ratio by fluorescence based thermal shift assay

[6] = system: MONO-MAC-6; test: Antitumor activity against human MONO-MAC-6 cells xenografted in busulfan treated NSG mouse assessed as increase in animal survial rate at 20 mg/kg, ip administered once daily for 22 days; format: functional, organism-based; conditions: time 22.0 day
[7] = Acute toxicity in BALB/c mouse assessed as body weight loss at 20 mg/kg, ip administered once daily for 7 days; format: organism-based; conditions: in vivo, 168 h, time 7 day
[8] = system: NB-4; test: Antiproliferative activity against human NB-4 cells assessed as reduction in cell viability measured after 48 hrs by CCK-8 assay; conditions: NB-4, 48 h
[9] = Toxicity in busulfan treated NSG mouse xenografted with human MONO-MAC-6 cells assessed as reduction in body weight at 20 mg/kg, ip administered once daily for 22 days; format: organism-based; conditions: in vivo, 528 h, time 22 day
[10] = system: MONO-MAC-6; test: Antiproliferative activity against human MONO-MAC-6 cells assessed as reduction in cell viability measured after 48 hrs by CCK-8 assay; conditions: MONO-MAC-6, 48 h
[11] = system: NB-4; test: Inhibition of colony formation in human NB-4 cells measured after 14 days by nitroblue tetrazolium chloride staining based soft agar assay; format: functional, cell-based; conditions: dose 5-15 µM, time 14.0 day, DDE = dose-dependent effect
[12] = system: THP-1; test: Antiproliferative activity against human THP-1 cells assessed as reduction in cell viability measured after 48 hrs by CCK-8 assay; conditions: THP-1, 48 h
[13] = system: HEL; test: Antiproliferative activity against HEL cells assessed as reduction in cell viability measured after 48 hrs by CCK-8 assay; conditions: Homo sapiens

Structure (SMILES): COc1cc(-c2c(C)noc2C)cc(OC)c1Nc1ccccc1C(=O)O
Activity [1]: Active
Activity [2]: Active

Structure (SMILES): Cc1noc(C)c1-c1ccc(Nc2ccccc2C(=O)O)cc1
Activity [1]: Active
Activity [2]: Active

IC50 [3]: 1600 nM
Structure (SMILES): Cc1noc(C)c1-c1cc(Cl)c(Nc2cccc(F)c2C(=O)O)c(Cl)c1

IC50 [3]: 7200 nM
Structure (SMILES): O=C(O)c1ccccc1Nc1c(Cl)cc(-c2ccn[nH]2)cc1Cl

IC50 [3]: 6500 nM
Structure (SMILES): Cc1cc(-c2cc(Cl)c(Nc3ccccc3C(=O)O)c(Cl)c2)ccn1

IC50 [3]: 1400 nM
Structure (SMILES): CCc1cc(-c2c(C)noc2C)cc(CC)c1Nc1ccccc1C(=O)O

ΔTm [4]: 1.5 °C
ΔTm [5]: 0.5 °C
IC50 [3]: 1500 nM
Structure (SMILES): O=C(O)c1ccccc1Nc1c(Cl)cc(-c2ccncc2)cc1Cl

IC50 [3]: 2400 nM
Structure (SMILES): O=C(O)c1ccccc1Nc1c(Cl)cc(-c2cc(O)cc(O)c2)cc1Cl

IC50 [3]: 1700 nM
Structure (SMILES): O=C(O)c1ccccc1Nc1c(Cl)cc(-c2cnoc2)cc1Cl

IC50 [3]: 1100 nM
Structure (SMILES): Cc1noc(C)c1-c1cc(Cl)c(Nc2ccc(F)cc2C(=O)O)c(Cl)c1

IC50 [3]: 2200 nM
Structure (SMILES): COc1cccc(Nc2c(Cl)cc(-c3c(C)noc3C)cc2Cl)c1C(=O)O

IC50 [3]: 1900 nM
Structure (SMILES): Cc1cc(-c2c(C)noc2C)cc(C)c1Nc1ccccc1C(=O)O

Structure (SMILES): Cc1noc(C)c1-c1cc(F)c(Nc2ccccc2C(=O)O)c(Cl)c1
Activity [1]: Active
Activity [2]: Active
Activity [6]: Active
Activity [7]: Non-Toxic
IC50 [8]: 2100 nM
Activity [9]: Toxic
IC50 [10]: 1900 nM
inhibition [11]: Dde
IC50 [12]: 7300 nM
IC50 [13]: 7700 nM

IC50 [3]: 3400 nM
Structure (SMILES): Cc1noc(C)c1-c1cc(Cl)c(Nc2cc(F)c(F)cc2C(=O)O)c(Cl)c1
